Here are results for 19 compounds from paper PMC11348465, “Pharmacochemical Study of Multitarget Amino Acids’ Hybrids: Design, Synthesis, In vitro, and In silico Studies” (Medicinal Chemistry (Shariqah (United Arab Emirates), 2024).

For assay [1], the target named is T1, soybean lipoxygenase (LOX-1) (Glycine max, UniProt P08170).
T1 construct: purchased Sigma Chemical, Co. (St Louis, MO, USA)
T1 sequence (P08170 1-839): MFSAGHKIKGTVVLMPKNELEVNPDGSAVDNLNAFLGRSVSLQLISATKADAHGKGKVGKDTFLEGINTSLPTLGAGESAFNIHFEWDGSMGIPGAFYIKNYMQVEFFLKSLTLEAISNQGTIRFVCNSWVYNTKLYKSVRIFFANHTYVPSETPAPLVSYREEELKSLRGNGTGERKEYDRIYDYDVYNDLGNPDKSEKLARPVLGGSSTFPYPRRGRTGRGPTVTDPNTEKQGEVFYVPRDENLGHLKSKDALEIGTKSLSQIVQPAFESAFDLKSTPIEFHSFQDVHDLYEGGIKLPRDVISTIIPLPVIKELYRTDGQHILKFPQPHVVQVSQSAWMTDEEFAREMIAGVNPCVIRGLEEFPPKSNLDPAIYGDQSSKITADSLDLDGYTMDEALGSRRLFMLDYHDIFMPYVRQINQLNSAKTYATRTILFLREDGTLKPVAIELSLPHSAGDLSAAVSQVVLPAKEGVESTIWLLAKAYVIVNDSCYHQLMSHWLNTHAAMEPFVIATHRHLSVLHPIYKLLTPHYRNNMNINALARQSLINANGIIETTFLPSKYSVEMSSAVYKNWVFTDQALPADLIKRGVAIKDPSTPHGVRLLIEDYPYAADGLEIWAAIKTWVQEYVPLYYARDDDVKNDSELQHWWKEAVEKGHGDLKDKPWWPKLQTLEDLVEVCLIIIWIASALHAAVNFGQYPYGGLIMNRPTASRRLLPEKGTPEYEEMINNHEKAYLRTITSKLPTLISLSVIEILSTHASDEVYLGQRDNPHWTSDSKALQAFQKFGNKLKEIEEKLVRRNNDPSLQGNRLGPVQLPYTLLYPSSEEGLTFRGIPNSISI
In words: Soybean lipoxygenase inhibition study. To be noted: for inhibition at 100 µM: read-out: LOX inhibition (%). In kind it is biochemical. The protocol:
Our group evaluated an in vitro study as reported previously. The tested hybrids were incubated at room temperature with sodium linoleate (100 µM) and 200 µL of enzyme solution (1/9 X 10^-4 w/v in saline). […] Different concentrations were used for the determination of IC50. A blank determination was used as a negative control.
Due to the limited work on sufficiently purified human ALOX-5 isoenzyme, most of the published research was performed on the soybean homolog. […] This study used the soybean isoenzyme LOX-1, which exerts maximal activity at pH 9.0 [72].

In another assay the target is T2, ovine COX-2 (Ovis aries, UniProt P79208).
T2 construct: purchased Cayman (USA)
T2 sequence (P79208 17-603): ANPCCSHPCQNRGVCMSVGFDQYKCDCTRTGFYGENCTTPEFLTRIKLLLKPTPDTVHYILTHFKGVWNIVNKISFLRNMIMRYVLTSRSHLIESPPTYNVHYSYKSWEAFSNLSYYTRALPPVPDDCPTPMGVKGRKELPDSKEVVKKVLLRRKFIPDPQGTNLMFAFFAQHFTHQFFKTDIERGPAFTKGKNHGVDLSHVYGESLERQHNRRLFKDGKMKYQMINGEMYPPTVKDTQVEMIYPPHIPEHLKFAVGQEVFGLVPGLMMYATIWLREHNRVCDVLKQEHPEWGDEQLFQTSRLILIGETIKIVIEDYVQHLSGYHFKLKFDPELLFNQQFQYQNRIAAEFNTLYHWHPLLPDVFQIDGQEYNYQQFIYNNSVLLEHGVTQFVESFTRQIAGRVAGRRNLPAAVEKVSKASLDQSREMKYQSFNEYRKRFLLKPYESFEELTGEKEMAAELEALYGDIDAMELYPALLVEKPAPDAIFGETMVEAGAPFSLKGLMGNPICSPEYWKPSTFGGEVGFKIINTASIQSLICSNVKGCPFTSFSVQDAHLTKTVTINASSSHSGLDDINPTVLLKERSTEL
Put plainly: Cyclooxygenase-2 inhibition study. The class given is biochemical. To be noted: for COX-2 inhibition (%): % inhibition at 100 µM. Here is the method:
The in vitro study of cyclooxygenase (COX) activity was determined by using arachidonic acid (AA) as the substrate and N,N,N’,N’-tetramethylphenylenediamine (TMPD) as the co-substrate. […] The absorption due to the spontaneous oxidation of TMPD was subtracted from the initial rate of oxidation observed in the presence of AA. […] A blank determination was used first to serve as a negative control. Indomethacin was used as a reference COX-2 inhibitor (positive control).
The role of COX-2 in neurodegenerative diseases has been reported, and COX-2 inhibition is considered of high importance as a therapeutic tool. The designed derivatives were tested for their COX-2 inhibition activity on the ovine COX-2 enzyme. […] Indomethacin was used as a reference compound.

The conditions of assay [2]: cited from earlier work.
Assay [3] can be described thus: Inhibition of linoleic acid peroxidation (AAPH-induced). Here is the method:
Our group evaluated the in vitro study as reported previously. Ten 16 mM sodium linoleate solution microliters were added to the UV cuvette containing 93 µL of a 0.05 M phosphate buffer, pH 7.4, and 10 µL of the tested compounds (final concentration 100 µM). The oxidation reaction started at 37 °C under air by adding 50 µL of the free radical initiator AAPH (40 mM). Oxidation was carried out and monitored at 234 nm. DMSO under the same conditions was used as a negative control. Trolox was used as the appropriate standard (positive control). The results are given in Table S1 in the supplementary material.
We used the water-soluble 2, 2’-azobis(2-amidinopropane) hydrochloride (AAPH) to generate in vitro peroxyl radicals through spontaneous thermal decomposition, which resembles cellular lipid peroxidation due to the activity of the undertaken radicals. The anti-lipid peroxidation activities were compared to a well-known antioxidant, i.e., Trolox (Table S1 in the supplementary material). […] In general, the anti-lipid peroxidation ranged from 8-99%. Except for acids 11, 12, 17, 19, 21, 22, 24, 25, and 28, which present high antioxidant activities (on the high % level), the other cinnamic acids present low or medium activity.

The test system of another assay is albumin. In words: Albumin denaturation studies. The protocol:
The synthesized compounds were evaluated for the inhibition of albumin denaturation. Test tubes containing 1 mL of albumin solution (1% w/v in phosphate buffer pH=7.4), buffer, and 20 μL of the tested compounds dissolved in DMSO are incubated at 37°C for 15 minutes (final concentration 100 µM). The incubation follows at 60°C for another 15 minutes to induce albumin denaturation. The samples are cooled to room temperature. Their absorbance was measured at 660 nm. DMSO was used as a blank solution and acetylsalicylic acid as a reference compound. The results are given in Table S1 in the supplementary material.
Protein denaturation has correlated well with the inflammatory response, leading to various inflammatory diseases. It is known that tissue injury during life might refer to the denaturation of cells' protein constituents or intercellular substances. […] Many anti-inflammatory drugs can inhibit the heat-coagulation of serum albumin [78]. Thus, the inhibition of albumin heat-coagulation activity of the designed molecules was examined in vitro [60] as a measure of their anti-inflammatory activity. The experimental results were compared to the standard drug, acetylsalicylic acid. […] The results are given in Table S1 in the supplementary material.

In assay [4] the target is T1, soybean lipoxygenase (LOX-1). The following applies: % inhibition at 100 µM; cited from earlier work.
[5] abbreviates: read-out: COX-2 inhibition (IC50).
Setting [6] is: read-out: LOX inhibition (IC50).

Where two headings read alike, the source gives them in different places.

By IC50 is commonly meant the concentration that inhibits the measured activity by half. The inhibition is the share of the control response that was lost under treatment. On to `O=C(O)/C=C/c1ccc(OCc2ccc(Br)cc2)cc1` [Compound 11], for which the IC50 in assay [1] is 100 µM. In addition, on ovine COX-2, the inhibition at 100 µM was found to be 17%. Also, the “AAPH inhibition (%, at 100 µM)” value in assay [2] was 84%.
As to `COC(=O)CC[C@H](NC(=O)/C=C/c1ccc2c(c1)OC(C)(C)O2)C(=O)OC` [Compound 29c], the “AAPH inhibition (%, at 100 µM)” value in assay [3] came out at 27%. Moreover, the “Albumin denaturation (%, at 100 µM)” value in the assay on albumin was determined as 75%.
Compound `COc1ccc(/C=C/C(=O)O)cc1OC` [Compound 18] displayed an inhibition at 100 µM against ovine COX-2 of 19%. The “AAPH inhibition (%, at 100 µM)” value in assay [2] is 86%.
For `COC(=O)CCCNC(=O)/C=C/c1ccc(O)c(O)c1` [Compound 28b], the “AAPH inhibition (%, at 100 µM)” value in assay [3] came to 58%. At ovine COX-2 (setting [5]), the IC50 was determined as 100 µM. Besides, in the assay on albumin, the “Albumin denaturation (%, at 100 µM)” value worked out at 44%.
As to `COC(=O)CCC(NC(=O)C=Cc1ccc(O)c(O)c1)C(=O)OC` (centres unmarked) [Compound 28c], in assay [3], the “AAPH inhibition (%, at 100 µM)” value is on record as 87%. Further, in assay [1] (setting [6]), the IC50 turned out to be 8.5 µM. On ovine COX-2, this compound gave an inhibition at 100 µM of 19%. The “Albumin denaturation (%, at 100 µM)” value in the assay on albumin is on record as 31%.
On ovine COX-2, `O=C(O)/C=C/c1cccc(Oc2ccccc2)c1` [Compound 12] yielded an inhibition at 100 µM of 39%. In addition, the “AAPH inhibition (%, at 100 µM)” value in assay [2] was 84%.
The compound `O=C(O)/C=C/C=C/c1ccccc1` [Compound 23] showed an inhibition at 100 µM on ovine COX-2 of 9%. The “AAPH inhibition (%, at 100 µM)” value in assay [2] is given as 30%. Moreover, in assay [4], the “LOX inhibition (%)” value is 24%.
Compound `O=C(O)/C=C/c1ccccc1` [Compound 22, cinnamic acid] showed an inhibition at 100 µM against ovine COX-2 of 4%. Moreover, the “AAPH inhibition (%, at 100 µM)” value in assay [2] is 78%.
For the compound `CCOC(=O)CNC(=O)/C=C/c1cccc(Oc2ccccc2)c1` [Compound 12a], the “AAPH inhibition (%, at 100 µM)” value in assay [3] stood at 48%. In addition, in assay [1] (% inhibition at 100 µM), the “LOX inhibition (%)” value came to 36%. Also, the IC50 at ovine COX-2 (setting [5]) was found to be 55 µM.
With `COC(=O)CC[C@H](NC(=O)/C=C/c1ccc(O)c(OC)c1)C(=O)OC` [Compound 24c], in assay [3], the “AAPH inhibition (%, at 100 µM)” value is given as 12%. The IC50 in assay [1] (setting [6]) is 75 µM. Besides, on ovine COX-2, the “COX-2 inhibition (%)” value was 9%.
Turning to `COC(=O)CC[C@H](NC(=O)/C=C/c1cccc2ccccc12)C(=O)OC` [Compound 17c], in assay [3], the “AAPH inhibition (%, at 100 µM)” value came to 57%. In addition, the IC50 in assay [1] (setting [6]) came to 68 µM; on ovine COX-2 (setting [5]), 62 µM.
`O=C(O)/C=C/c1cccs1` [Compound 21]: the “AAPH inhibition (%, at 100 µM)” value in assay [2] is 60%.
In the case of `CCOC(=O)CNC(=O)/C=C/c1ccc(O)c(O)c1` [Compound 28a], the “AAPH inhibition (%, at 100 µM)” value in assay [3] came out at 47%. The IC50 in assay [1] (setting [6]) is 70 µM. Further, the inhibition at 100 µM at ovine COX-2 stood at 17%.
For the compound `COc1ccc(OC)c(/C=C/C(=O)O)c1` [Compound 19], the “AAPH inhibition (%, at 100 µM)” value in assay [3] came to 88%. Moreover, the IC50 in assay [1] (setting [6]) came out at 60 µM. On ovine COX-2, this compound gave an inhibition at 100 µM of 28%.
Take `CCOC(=O)CNC(=O)/C=C/c1ccc2c(c1)OC(C)(C)O2` [Compound 29a]: the “AAPH inhibition (%, at 100 µM)” value in assay [3] stood at 80%. In addition, the “COX-2 inhibition (%)” value at ovine COX-2 stood at 38%. In addition, the “Albumin denaturation (%, at 100 µM)” value in the assay with albumin is 25%.
With `CC(=O)Oc1ccccc1C(=O)O` [Aspirin, acetylsalicylic acid, reference compound], the “Albumin denaturation (%, at 100 µM)” value in the assay on albumin was found to be 31.2%.
Turning to `O=C(O)/C=C/c1ccc(C(F)(F)F)cc1` [Compound 13], the “AAPH inhibition (%, at 100 µM)” value in assay [3] came out at 37%. Also, the inhibition at 100 µM in assay [1] worked out at 42%; at ovine COX-2, 32%.
For `N#Cc1ccc(/C=C/C(=O)O)cc1` [Compound 26], the inhibition at 100 µM in assay [1] is 27%. This compound registered an IC50 on ovine COX-2 of 65 µM. Besides, in assay [2], the “AAPH inhibition (%, at 100 µM)” value is given as 20%.
On to `COC(=O)CC[C@H](NC(=O)/C=C/C=C/c1ccccc1)C(=O)OC` [Compound 23c], for which, in assay [3], the “AAPH inhibition (%, at 100 µM)” value was 25%. For the same compound, the IC50 in assay [1] (setting [6]) stood at 75 µM. Also, the “COX-2 inhibition (%)” value on ovine COX-2 came to 47%.
